Converted amounts (≈) assume the structure as drawn. “And” between values parts separate entries of the source, which are not always exact repeats. Equal entries are not always repeated.
Tests used:
[1] = Hepatic microsomal stability, HLM; assay type: in vitro ADME, human; details: In vitro human liver microsomal stability; for perc_remaining_no_cofactor: no cofactor
[2] = In vitro kinetic solubility; details: In vitro kinetic solubility, ph 7.4
[3] = Permeability Papp (AB) MDR1/MDCKII; details: In vitro MDR1-MDCKII permeability; for papp_a_to_b_mean: A to B; for perc_recovery_a_to_b_mean: recovery A to B
[4] = Hepatic microsomal stability, MLM; assay type: in vitro ADME
LogD = details: pH 7.4
[5] = In vitro mouse liver microsomal stability
[6] = In vitro mouse liver microsomal stability, no cofactor
[7] = In vitro mouse liver microsomal stability; no cofactor

SMILES | clint [1] | perc_remaining [1] | t_half [1] | perc_remaining_no_cofactor [1] | solubility_mean [2] | papp_a_to_b_mean ([3]; mean) | perc_recovery_a_to_b_mean ([3]; mean) | clint [4, 5] | perc_remaining [4, 5] | t_half [4, 5] | perc_remaining_no_cofactor [4, 6] [%] | logd (LogD; In vitro LogD) | papp_a_to_b_mean ([3]; no inhibitor) [×10⁻⁶ cm/s] | perc_recovery_a_to_b_mean ([3]; no inhibitor) [%] | perc_remaining_no_cofactor [4, 7] [%] | logd (LogD)
CC(C(=O)O)C(NC(=O)c1ncnc2[nH]ccc12)c1ccc(Br)cc1 (mixture of isomers) [ASAP-0008445] | 5.0 µL/min/mg | 103.0% | 338.5 min | 110.0% | 386 µM | 1.4 ×10⁻⁶ cm/s | 93.4% | 4.0 µL/min/mg | 94.0% | 433.2 min | 109.0 | 0.5 | – | – | – | –
COc1ccc(C(NC(=O)c2ncnc3[nH]ccc23)C(C)c2nnn[nH]2)cc1 (mixture of isomers) [ASAP-0010744] | 2.0 µL/min/mg | 92.0% | 798.7 min | 103.0% | ≥ 400 µM | – | – | 1.0 µL/min/mg | 99.0% | 2882.2 min | 92.0 | 0.0 | 1.13 | 93.6 | – | –
COc1ccc2c(c1)CCN(c1ncnc3[nH]ccc13)[C@H]2C(C)C (racemic) [ASAP-0000502] | 60.0 µL/min/mg | 38.0% | 27.8 min | 103.0% | 14 µM (≈ 4.51 µg/mL) | 7.0 ×10⁻⁶ cm/s | 32.0% | 321.0 µL/min/mg | 1.0% | 5.2 min | – | 4.33 | – | – | 83.0 | –
COc1ccc([C@H](CC(=O)O)NC(=O)c2ncnc3[nH]ccc23)cc1 (racemic) [ASAP-0000591] | 7.0 µL/min/mg | 87.0% | 240.4 min | 88.0% | ≥ 400 µM | 1.7 ×10⁻⁶ cm/s | 90.0% | 2.0 µL/min/mg | 94.0% | 686.4 min | – | -0.38 | – | – | 96.0 | –
O=C(Nc1cccc2c(C(=O)N[C@H]3c4ccccc4C[C@H]3C(=O)O)c[nH]c12)NC1CC1 (racemic) [ASAP-0000627] | 6.0 µL/min/mg | 88.0% | 279.8 min | 86.0% | ≥ 400 µM | 1.8 ×10⁻⁶ cm/s | 81.0% | 4.0 µL/min/mg | 95.0% | 453.6 min | – | -0.05 | – | – | 105.0 | –
CC(C)[C@H](Nc1ncnc2[nH]cc(C(N)=O)c12)c1ccc2c(c1)OCCO2 (racemic) [ASAP-0008399] | 143.0 µL/min/mg | 9.0% | 11.7 min | 110.0% | 375 µM (≈ 138 µg/mL) | 11.1 ×10⁻⁶ cm/s | 90.0% | 142.0 µL/min/mg | 9.0% | 11.7 min | 98.0 | 3.2 | – | – | – | –
CC(C)[C@H](Nc1ncnc2[nH]c(-c3cnn(C)c3C#N)cc12)c1ccc2c(c1)NC(=O)CO2 (racemic) [ASAP-0008576] | 100.0 µL/min/mg | 18.0% | 16.6 min | 93.0% | 69 µM (≈ 30.5 µg/mL) | 3.07 ×10⁻⁶ cm/s | 80.1% | 177.0 µL/min/mg | 6.0% | 9.4 min | 97.0 | 4.1 | – | – | – | –
CC(C)(C)[C@H](Nc1ncnc2[nH]c(-c3cnn(CC(N)=O)c3)cc12)c1ccc2c(c1)OCCO2 (racemic) [ASAP-0008581] | 133.0 µL/min/mg | 11.0% | 12.6 min | 87.0% | 195 µM (≈ 90 µg/mL) | 1.66 ×10⁻⁶ cm/s | 94.7% | 47.0 µL/min/mg | 46.0% | 35.2 min | 107.0 | 3.2 | – | – | – | –
CC(C)[C@H](Nc1ncnc2[nH]c(-c3cnn(CC(N)=O)c3)cc12)c1ccc2c(c1)NC(=O)CO2 (racemic) [ASAP-0008621] | 17.0 µL/min/mg | 73.0% | 99.2 min | 91.0% | 25 µM (≈ 11.5 µg/mL) | 1.36 ×10⁻⁶ cm/s | 98.0% | 11.0 µL/min/mg | 84.0% | 155.8 min | 102.0 | 2.5 | – | – | – | –
CNC(=O)c1c[nH]c2ncnc(N[C@H](c3ccc4c(c3)NC(=O)CO4)C(C)C)c12 (racemic) [ASAP-0008637] | 86.0 µL/min/mg | 23.0% | 19.5 min | 98.0% | 28 µM (≈ 11 µg/mL) | 4.26 ×10⁻⁶ cm/s | 97.4% | 113.0 µL/min/mg | 16.0% | 14.8 min | 95.0 | 3.2 | – | – | – | –
CNC(=O)c1c[nH]c2ncnc(N[C@H](c3ccc4c(c3)S(=O)(=O)CCC4)C(C)C)c12 (racemic) [ASAP-0008641] | 131.0 µL/min/mg | 11.0% | 12.8 min | 104.0% | 390 µM (≈ 167 µg/mL) | 2.23 ×10⁻⁶ cm/s | 79.1% | 192.0 µL/min/mg | 3.0% | 8.7 min | 92.0 | 2.5 | – | – | – | –
Cn1ncc(-c2cc3c(N[C@H](c4ccc5c(n4)OCCO5)C(C)(C)C)ncnc3[nH]2)c1C#N (racemic) [ASAP-0008645] | 70.0 µL/min/mg and 81.0 µL/min/mg | 30.0% and 27.0% | 23.9 min and 20.6 min | 91.0% and 108.0% | 25 µM and 24 µM | 9.87 ×10⁻⁶ cm/s and 13.5 ×10⁻⁶ cm/s | 73.4% and 58.4% | 188.0 µL/min/mg and 209.0 µL/min/mg | 5.0% and 4.0% | 8.9 min and 8.0 min | 106.0 | – | – | – | 101.0 | –
CC(C)[C@H](Nc1ncnc2[nH]cc(C(=O)NC3CC3)c12)c1ccc2c(c1)S(=O)(=O)CCC2 (racemic) [ASAP-0008647] | 29.0 µL/min/mg | 57.0% | 57.0 min | 90.0% | 257 µM (≈ 117 µg/mL) | 2.46 ×10⁻⁶ cm/s | 73.4% | 234.0 µL/min/mg | 2.0% | 7.2 min | 101.0 | 3.1 | – | – | – | –
CC(C)(C)[C@H](Nc1ncnc2[nH]c(-c3cnn(CC(N)=O)c3)cc12)c1ccc2c(n1)OCCO2 (racemic) [ASAP-0008648] | 36.0 µL/min/mg | 55.0% | 46.0 min | 96.0% | 48 µM (≈ 22.2 µg/mL) | 0.822 ×10⁻⁶ cm/s | 88.8% | 31.0 µL/min/mg | 60.0% | 53.1 min | 90.0 | 2.7 | – | – | – | –
COCCNC(=O)c1c[nH]c2ncnc(N[C@H](c3ccc4c(c3)S(=O)(=O)CCC4)C(C)C)c12 (racemic) [ASAP-0008650] | 540.0 µL/min/mg | 0.0% | 3.1 min | 106.0% | 378 µM (≈ 178 µg/mL) | 1.62 ×10⁻⁶ cm/s | 73.3% | 888.0 µL/min/mg | 0.0% | 1.9 min | 99.0 | 2.8 | – | – | – | –
CC(C)[C@H](Nc1ncnc2[nH]c(-c3cnn(CC(N)=O)c3)cc12)c1ccc2c(c1)S(=O)(=O)CCC2 (racemic) [ASAP-0008679] | 116.0 µL/min/mg | 15.0% | 14.4 min | 95.0% | 341 µM (≈ 168 µg/mL) | 0.32 ×10⁻⁶ cm/s | 79.9% | 61.0 µL/min/mg | 37.0% | 27.4 min | – | 1.9 | – | – | 109.0 | –
CC(C)C(Nc1ncnc2[nH]ccc12)c1ccc2c(n1)OCCO2 (centres unmarked) [ASAP-0008270] | – | – | – | – | – | – | – | – | – | – | – | – | – | – | – | 2.8
CC(C)[C@@H](Nc1ncnc2[nH]ccc12)c1ccc2c(c1)OCCO2 [ASAP-0008279] | – | – | – | – | – | – | – | – | – | – | – | 3.0 | – | – | – | –
